Conditions: Liquid, Vibrating tube method

FC(C(F)(F)F)C(F)(F)F [1,1,1,2,3,3,3-heptafluoropropane]
Conditions	mass density [kg/m3]
333.16 K, 21595 kPa	1400.1
333.16 K, 21615 kPa	1400.2
333.16 K, 21797 kPa	1401.1
333.16 K, 21860 kPa	1401.5
333.16 K, 21957 kPa	1401.9
333.16 K, 21990 kPa	1402
333.16 K, 22016 kPa	1402.3
333.16 K, 22042 kPa	1402.3
333.16 K, 22082 kPa	1402.5
333.16 K, 22116 kPa	1402.8
333.16 K, 22154 kPa	1402.9
333.16 K, 22183 kPa	1403.1
333.16 K, 22220 kPa	1403.2
333.16 K, 22249 kPa	1403.6
333.16 K, 22279 kPa	1403.5
333.16 K, 22309 kPa	1403.8
333.16 K, 22335 kPa	1403.8
333.16 K, 22370 kPa	1404.1
333.16 K, 22404 kPa	1404.2
333.16 K, 22435 kPa	1404.3
333.16 K, 22473 kPa	1404.6
333.16 K, 22511 kPa	1404.8
333.16 K, 22537 kPa	1404.9
333.16 K, 22575 kPa	1405.2
333.16 K, 22605 kPa	1405.3
333.16 K, 22642 kPa	1405.4
333.16 K, 22672 kPa	1405.6
333.16 K, 22698 kPa	1405.8
333.16 K, 22736 kPa	1405.9
333.16 K, 22762 kPa	1406.1
333.16 K, 22980 kPa	1407.1
333.16 K, 23011 kPa	1407.2
333.16 K, 23037 kPa	1407.4
333.16 K, 23068 kPa	1407.5
333.16 K, 23104 kPa	1407.9
333.16 K, 23133 kPa	1407.8
333.16 K, 23162 kPa	1408
333.16 K, 23193 kPa	1408.1
333.16 K, 23228 kPa	1408.3
333.16 K, 23254 kPa	1408.5
333.16 K, 23297 kPa	1408.8
333.16 K, 23324 kPa	1408.8
333.16 K, 23358 kPa	1409
333.16 K, 23425 kPa	1409.3
333.16 K, 23453 kPa	1409.5
333.16 K, 23480 kPa	1409.5
333.16 K, 23515 kPa	1409.6
333.16 K, 23559 kPa	1410
333.16 K, 23594 kPa	1410.2
333.16 K, 23633 kPa	1410.3
333.16 K, 23662 kPa	1410.4
333.16 K, 23693 kPa	1410.4
333.16 K, 23728 kPa	1410.8
333.16 K, 23763 kPa	1411
333.16 K, 23795 kPa	1411
333.16 K, 23823 kPa	1411.3
333.16 K, 23890 kPa	1411.6
333.16 K, 23921 kPa	1411.7
333.16 K, 23957 kPa	1411.9
333.16 K, 23993 kPa	1412
333.16 K, 24020 kPa	1412.2
333.16 K, 24055 kPa	1412.4
333.16 K, 24089 kPa	1412.4
333.16 K, 24110 kPa	1412.7
333.16 K, 24140 kPa	1412.7
333.16 K, 24184 kPa	1413
333.16 K, 24206 kPa	1413.1
333.16 K, 24242 kPa	1413.2
333.16 K, 24269 kPa	1413.3
333.16 K, 24304 kPa	1413.6
333.16 K, 24333 kPa	1413.8
333.16 K, 24369 kPa	1413.7
333.16 K, 24396 kPa	1414
333.16 K, 24436 kPa	1414.2
333.16 K, 24468 kPa	1414.3
333.16 K, 24500 kPa	1414.4
333.16 K, 24531 kPa	1414.6
333.16 K, 24558 kPa	1414.7
333.16 K, 24594 kPa	1414.9
333.16 K, 24621 kPa	1415.1
333.16 K, 24657 kPa	1415.2
333.16 K, 24688 kPa	1415.3
333.16 K, 24720 kPa	1415.5
333.16 K, 24751 kPa	1415.7
333.16 K, 24782 kPa	1415.8
333.16 K, 24810 kPa	1415.9
333.16 K, 24838 kPa	1416
333.16 K, 24869 kPa	1416
333.16 K, 24910 kPa	1416.4
333.16 K, 24944 kPa	1416.5
333.16 K, 24980 kPa	1416.7
333.16 K, 25007 kPa	1416.8
333.16 K, 25039 kPa	1417.1
333.16 K, 25088 kPa	1417.1
333.16 K, 25111 kPa	1417.2
333.17 K, 17403 kPa	1376.8
333.17 K, 17429 kPa	1376.9
333.17 K, 17457 kPa	1377.4
333.17 K, 18467 kPa	1383.1
333.17 K, 18490 kPa	1383
333.17 K, 18517 kPa	1383.4
333.17 K, 18552 kPa	1383.6
333.17 K, 23382 kPa	1409

From the NIST ThermoML archive (doi:10.1021/je700260f)
